Reference: publication PMC4210713, “Intragenic antimicrobial peptides from Theobroma cacao” (BMC Proceedings, 2014)
Where no end group is shown, it is not given here.

System: Candida albicans ATCC 90028
Conditions: C. albicans ATCC 90028; broth microdilution, CLSI M27-A3; tested at 256 μM-0.5 μM; preliminary results

GFKDLLKGAAKALVKTVLF-NH2 [Ascaphin-8]
MIC (minimum inhibitory concentration): 8 µM
